Results taken from the supplement of paper PMC6004109.

Experiments:
Conditions in all cases: temperature: 37 °C
[1] = tested on: Candida glabrata ZIM 2344 (RPMI); assay: FICI minimum (fractional inhibitory concentration index, Loewe) (dimensionless); higher = less synergy / more antagonism
Description: (§1)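 CLSI M27-A3 checkerboard broth microdilution of an immunomodulatory drug (or amoxicillin) combined with an antifungal against S. cerevisiae and C. glabrata isolates. Growth was read as OD600 after incubation at 37 °C (48 h for the reported MICs). Reported quantities are the FICI (Loewe: MIC50 for azoles and immunomodulators, MIC90 for AMB; ≤0.5 synergy, ≥4 antagonism), as minimum and maximum over the surface, and the Bliss-independence sum of statistically significant ΔE (positive = synergy). Clinical isolates were tested in RPMI; C. glabrata ATCC 2001 and its pdr1Δ mutant were tested in YPD.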

[2] = tested on: Candida glabrata ZIM 2365 (RPMI); assay: as above
Description: as §1

[3] = tested on: Candida glabrata ZIM 2369 (RPMI); assay: as above
Description: as §1

[4] = tested on: Candida glabrata ZIM 2382 (RPMI); assay: as above
Description: as §1

[5] = tested on: Candida glabrata ZIM 2385 (RPMI); assay: as above
Description: as §1

[6] = tested on: Candida glabrata ZIM 2389 (RPMI); assay: as above
Description: as §1

[7] = tested on: Saccharomyces cerevisiae ZIM 2247 (RPMI); assay: as above
Description: as §1

[8] = tested on: Saccharomyces cerevisiae ZIM 2255 (RPMI); assay: as above
Description: as §1

[9] = tested on: Saccharomyces cerevisiae ZIM 2260 (RPMI); assay: as above
Description: as §1

[10] = tested on: Saccharomyces cerevisiae ZIM 2269 (RPMI); assay: as above
Description: as §1

[11] = tested on: Saccharomyces cerevisiae ZIM 2558 (RPMI); assay: as above
Description: as §1

[12] = tested on: Saccharomyces cerevisiae ZIM 2566 (RPMI); assay: as above
Description: as §1

[13] = tested on: Candida glabrata ZIM 2344 (RPMI); assay: FICI maximum (fractional inhibitory concentration index, Loewe) (dimensionless); higher = less synergy / more antagonism
Description: as §1

[14] = tested on: Candida glabrata ZIM 2365 (RPMI); assay: as above
Description: as §1

[15] = tested on: Candida glabrata ZIM 2369 (RPMI); assay: as above
Description: as §1

[16] = tested on: Candida glabrata ZIM 2382 (RPMI); assay: as above
Description: as §1

[17] = tested on: Candida glabrata ZIM 2385 (RPMI); assay: as above
Description: as §1

[18] = tested on: Candida glabrata ZIM 2389 (RPMI); assay: as above
Description: as §1

[19] = tested on: Saccharomyces cerevisiae ZIM 2247 (RPMI); assay: as above
Description: as §1

[20] = tested on: Saccharomyces cerevisiae ZIM 2255 (RPMI); assay: as above
Description: as §1

[21] = tested on: Saccharomyces cerevisiae ZIM 2260 (RPMI); assay: as above
Description: as §1

[22] = tested on: Saccharomyces cerevisiae ZIM 2269 (RPMI); assay: as above
Description: as §1

[23] = tested on: Saccharomyces cerevisiae ZIM 2558 (RPMI); assay: as above
Description: as §1

[24] = tested on: Saccharomyces cerevisiae ZIM 2566 (RPMI); assay: as above
Description: as §1

[25] = tested on: Candida glabrata ZIM 2344 (RPMI); assay: Bliss independence sum of statistically significant ΔE (measured minus predicted growth inhibition) over checkerboard surface (fraction (sum of ΔE; 1 = 100%)); higher = more synergy
[26] = tested on: Candida glabrata ZIM 2385 (RPMI); assay: as above
[27] = tested on: Saccharomyces cerevisiae ZIM 2247 (RPMI); assay: as above
[28] = tested on: Saccharomyces cerevisiae ZIM 2269 (RPMI); assay: as above

Row | Structure (SMILES) | FICI minimum [1] | FICI minimum [2] | FICI minimum [3] | FICI minimum [4] | FICI minimum [5] | FICI minimum [6] | FICI minimum [7] | FICI minimum [8] | FICI minimum [9] | FICI minimum [10] | FICI minimum [11] | FICI minimum [12] | FICI maximum [13] | FICI maximum [14] | FICI maximum [15] | FICI maximum [16] | FICI maximum [17] | FICI maximum [18] | FICI maximum [19] | FICI maximum [20] | FICI maximum [21] | FICI maximum [22] | FICI maximum [23] | FICI maximum [24] | Bliss independence sum [25] | Bliss independence sum [26] | Bliss independence sum [27] | Bliss independence sum [28]
1 | CN(Cc1cnc2nc(N)nc(N)c2n1)c1ccc(C(=O)N[C@@H](CCC(=O)O)C(=O)O)cc1 [methotrexate] + OC(Cn1cncn1)(Cn1cncn1)c1ccc(F)cc1F [fluconazole] | 0.505 | 1 | 1 | 1 | 1 | 0.505 | 1 | 1 | 1.01 | 0.656 | 0.406 | 1 | 0.656 | 1.16 | 1.16 | 2.16 | 2.16 | 1.16 | 1.16 | 1.08 | 2 | 1.08 | 1.04 | 2.16 | 1.94 | -0.819 | -0.857 | -1.86
2 | COc1c(C)c2c(c(O)c1C/C=C(\C)CCC(=O)O)C(=O)OC2 [mycophenolic acid] + OC(Cn1cncn1)(Cn1cncn1)c1ccc(F)cc1F [fluconazole] | 1.01 | 1.02 | 1.01 | 1.01 | 0.508 | 1.01 | 2.02 | 2.5 | 0.66 | 1.01 | 1.01 | 1.01 | 1.25 | 8.5 | 4.25 | 4.25 | 2.25 | 2.25 | 2.53 | 2.02 | 2.02 | 2.25 | 4.25 | 2.27 | 6.94 | -0.722 | -2.82 | -3.9
3 | CN(Cc1cnc2nc(N)nc(N)c2n1)c1ccc(C(=O)N[C@@H](CCC(=O)O)C(=O)O)cc1 [methotrexate] + C[C@@H]1[C@H](O)[C@@H](C)/C=C/C=C/C=C/C=C/C=C/C=C/C=C/[C@H](O[C@@H]2O[C@H](C)[C@@H](O)[C@H](N)[C@@H]2O)C[C@@H]2O[C@](O)(C[C@@H](O)C[C@@H](O)[C@H](O)CC[C@@H](O)C[C@@H](O)CC(=O)O[C@H]1C)C[C@H](O)[C@H]2C(=O)O [amphotericin B] | 0.656 | 1 | 1 | 1 | 2 | 1 | 1 | 0.516 | 1 | 1 | 1 | 1 | 1.08 | 1.16 | 1.16 | 1.16 | 2.16 | 1.16 | 1.16 | 1.5 | 1.16 | 1.16 | 2.16 | 1.16 | 1.26 | -1.71 | -2.39 | 0.225
4 | C=CC[C@@H]1/C=C(\C)C[C@H](C)C[C@H](OC)[C@H]2O[C@@](O)(C(=O)C(=O)N3CCCC[C@H]3C(=O)O[C@H](/C(C)=C/[C@@H]3CC[C@@H](O)[C@H](OC)C3)[C@H](C)[C@@H](O)CC1=O)[C@H](C)C[C@@H]2OC [tacrolimus] + C[C@@H]1[C@H](O)[C@@H](C)/C=C/C=C/C=C/C=C/C=C/C=C/C=C/[C@H](O[C@@H]2O[C@H](C)[C@@H](O)[C@H](N)[C@@H]2O)C[C@@H]2O[C@](O)(C[C@@H](O)C[C@@H](O)[C@H](O)CC[C@@H](O)C[C@@H](O)CC(=O)O[C@H]1C)C[C@H](O)[C@H]2C(=O)O [amphotericin B] | 0.516 | 0.25 | 0.258 | 0.251 | 0.281 | 0.26 | 0.0638 | 0.0938 | 0.251 | 0.0825 | 0.252 | 0.25 | 1 | 0.51 | 1.25 | 1.01 | 1 | 1 | 0.126 | 0.508 | 0.5 | 0.501 | 0.501 | 0.625 | 7.88 | 7.14 | 20.9 | 19.1
